Measured values from patent publication US6392118B1, “Mx-1 conditionally immortalized cells” (Neurotech S.A., priority 1994, dated 2002).

Assays:
[1] = system: glial fibrillary acidic protein (GFAP); test: GFAP reactivity of neural stem cells encapsulated in BAOs with or without EGF; type: cell-based; conditions: 20 ng/ml EGF
Protocol: Neurospheres were prepared using the methods of Weiss et al., PCT/CA 92/00283. Passage 68 neurospheres were collected and divided. Half of the neurospheres were triturated into a single cell suspension and half remained as clusters. A single cell count was performed on a single cell suspension and it was assumed that the clustered cells were of the same concentration. Single cells and clusters were suspended separately in equal amounts of Vitrogen™ and either neurosphere medium with 20 ng/ml EGF as controls, or PC-1 medium.
Cells were loaded at a density of 25,000 cells/μl into single-skinned hollow fiber PAN/PVC BAOs, prepared substantially as described in Example 2, and then hub sealed. The BAOs were held in either neurosphere+EGF medium or in PC-1 medium (with no EGF).
The BAOs were sacrificed after 3 days and 7 days and were stained for glial fibrillary acidic protein (GFAP) by immunocytochemistry. GFAP is an intermediate filament protein specifically expressed in astrocytes. […]

| Substance | GFAP Reactivity ([1]; cell clusters, 3 days) | GFAP Reactivity ([1]; cell clusters, 7 days) | GFAP Reactivity ([1]; single cell, 3 days) | GFAP Reactivity ([1]; single cell, 7 days) | toxicity of scaffold to PC12 cells (PC12 cells) |
| --- | --- | --- | --- | --- | --- |
| EGF: epidermal growth factor, 20 ng/ml in neurosphere medium | Negative | Negative | Negative | Negative | – |
| poly(hydroxyethyl methacrylate) [PHEMA] | – | – | – | – | nontoxic |
